In the NIST ThermoML archive (doi:10.1021/acs.jced.5b00285):

Conditions: 101.33 kPa, Liquid; for electrical conductivity: Alternating current cell with electrodes; for mass density: Vibrating tube method

CCCCn1cc[n+](C)c1.O=S(=O)([N-]S(=O)(=O)C(F)(F)C(F)(F)F)C(F)(F)C(F)(F)F [1-butyl-3-methylimidazolium bis(perfluoroethylsulfonyl)imide]
Conditions	electrical conductivity [S/m]	mass density [kg/m3]	viscosity [mPa·s]
273.15 K	0.0324	1539.6	579.1
278.15 K	0.046	1534	398.8
283.15 K	0.0634	1528.5	282.2
288.15 K	0.0853	1523.88	205.3
293.15 K	0.112	1518.55	153.3
298.15 K	0.145	1513.25	115.9
303.15 K	0.183	1507.96	89.72
308.15 K	0.227	–	–
313.15 K	0.278	1497.47	56.57
318.15 K	0.336	–	–
323.15 K	0.4	1487.06	37.86
328.15 K	0.475	–	–
333.15 K	0.549	1476.73	26.63
338.15 K	0.638	–	–
343.15 K	0.724	1466.47	19.48
348.15 K	0.831	–	–
353.15 K	0.928	1456.27	14.74
358.15 K	1.05	–	–
363.15 K	–	1446.14	11.48
368.15 K	1.29	–	–
378.15 K	1.56	–	–
388.15 K	1.86	–	–
398.15 K	2.16	–	–
408.15 K	2.49	–	–
418.15 K	2.83	–	–
428.15 K	3.19	–	–
438.15 K	3.56	–	–
448.15 K	3.94	–	–
458.15 K	4.33	–	–
468.15 K	4.72	–	–

CCCCCC[n+]1ccn(C)c1.O=S(=O)([N-]S(=O)(=O)C(F)(F)F)C(F)(F)F
Conditions	electrical conductivity [S/m]	mass density [kg/m3]	viscosity [mPa·s]
278.15 K	0.0776	1391.02	210.6
283.15 K	–	1386.34	–
288.15 K	0.136	1381.65	116.7
293.15 K	–	1376.98	–
298.15 K	0.218	1372.35	70.51
303.15 K	–	1367.74	–
308.15 K	0.328	1363.15	45.51
313.15 K	–	1358.58	–
318.15 K	0.466	1354.02	31.03
323.15 K	–	1349.49	–
328.15 K	0.634	1344.97	22.14
333.15 K	–	1340.47	–
338.15 K	0.83	1335.98	16.4
343.15 K	–	1331.51	–
348.15 K	1.05	1327.05	12.59
353.15 K	–	1322.61	–
358.15 K	1.3	1318.18	9.957
363.15 K	–	1313.77	–
368.15 K	1.58	–	8.066
378.15 K	1.88	–	6.673
388.15 K	2.19	–	5.623
398.15 K	2.53	–	4.819
408.15 K	2.88	–	4.19
418.15 K	3.24	–	–
428.15 K	3.62	–	–
438.15 K	4.01	–	–
448.15 K	4.41	–	–
458.15 K	4.82	–	–
468.15 K	5.24	–	–

CC(=O)[O-].CCn1cc[n+](C)c1 [1-ethyl-3-methylimidazolium acetate]
Conditions	electrical conductivity [S/m]	mass density [kg/m3]	viscosity [mPa·s]
278.15 K	–	1111.95	701.2
288.15 K	–	1105.67	288
298.15 K	0.278	1099.44	141.1
308.15 K	0.471	1093.24	78.27
318.15 K	0.733	1087.13	47.69
328.15 K	1.07	1081.09	31.26
338.15 K	1.48	1075.11	21.77
348.15 K	1.96	1069.17	16.01
358.15 K	2.5	1063.3	12.19
368.15 K	3.11	–	9.558
378.15 K	3.8	–	7.71
388.15 K	4.53	–	6.362
398.15 K	5.31	–	5.356
408.15 K	6.13	–	4.589
418.15 K	6.92	–	–

CCCCCCCCn1cc[n+](C)c1.O=S(=O)([N-]S(=O)(=O)C(F)(F)F)C(F)(F)F
Conditions	electrical conductivity [S/m]
273.15 K	0.0308
278.15 K	0.0432
283.15 K	0.059
288.15 K	0.0784
293.15 K	0.102
298.15 K	0.131
303.15 K	0.164
308.15 K	0.204
313.15 K	0.246
318.15 K	0.298
323.15 K	0.351
328.15 K	0.415
333.15 K	0.478
338.15 K	0.556
343.15 K	0.627
348.15 K	0.72
353.15 K	0.801
358.15 K	0.906
368.15 K	1.11
378.15 K	1.34
388.15 K	1.59
398.15 K	1.85
408.15 K	2.13
418.15 K	2.42
428.15 K	2.72
438.15 K	3.04
448.15 K	3.36
458.15 K	3.69
468.15 K	4.03
